The values that follow come from patent US7868135B2, “Compositions of lipopeptide antibiotic derivatives and methods of use thereof” (priority 2003, dated 2011).

Assay [1] deals with Streptococcus pneumoniae (SPN032, ATCC 1081). In words: Intranasal murine lung infection model. Format: in vivo. As to conditions: Swiss CD1 mice, i.n. S. pneumoniae, i.v. treatment at 3, 24 and 48 hours post-infection, deaths over ten days. On the procedure:
(§1) Other exemplary in vivo models of infection that may be used to assess, for example, the efficacy of an antimicrobial lipopeptide of the instant disclosure include the following: (A) a mouse (murine) model of lung infection (pneumonia) wherein the bacterial infection is administered intranasally (i.n.); (B) a murine thigh muscle model wherein the bacterial infection is administered intramuscularly (i.m.) in normal or neutropenic (immunocompromised) mice; and (C) a combination murine thigh muscle model (i.m. infection)/lung (i.n.) infection.
Antimicrobial lipopeptide derivatives of the instant invention were tested for antimicrobial activity against Gram-positive bacteria in an intranasal (i.n.) murine lung infection model (i.e., bacteria were innoculated i.n. and lipopeptide compounds were administered i.v.). Streptococcus pneumoniae (SPN032, ATCC 1081) were grown on 5% sheep blood agar plates for 24 h at 37° C., harvested and then resuspended in 0.9% saline. A group of eight Swiss CD1 mice were sedated with 2% isoflurane, and each was infected i.n. dropwise to the nares with 50 μl of the prepared bacterial inoculum (i.e., a dose of about 10^6 CFU/mouse). […] The ED50 (mg/kg) for each compound was calculated using the method of Reed and Meunch (Am. J. Hyg. 27: 493, 1938).

Assay [2] relates to Streptococcus pneumoniae (SPN0002). In words: Lung infection model in neutropenic mice. It is filed as in vivo. On the procedure:
Antimicrobial lipopeptide derivatives of the instant invention were tested for antimicrobial activity against Gram-positive bacteria in an intranasal (i.n.), immunocomprimised murine lung infection model (i.e., bacteria were innoculated i.n. and lipopeptide compounds were administered i.v.). Streptococcus pneumoniae (SPN0002) were grown on 5% sheep blood agar plates for 24 h at 37° C., harvested and then resuspended in 0.9% saline. A group of three to four Swiss CD1 mice were rendered neutropenic by administration of cyclophosphamide (Sigma Chemical Co.; 150 mg/kg, i.p.) on day −4 and −1 before infection. At time −18 to −24 hours, each mouse was infected i.n. dropwise via the nares with 50 μl of the prepared bacterial inoculum (i.e., a dose of about 5×10^6 CFU/mouse). At 18 to 24 hours post-infection, the groups of mice received i.v. (1) a lipopeptide derivative formulated in a 5% D-mannitol solution at a dose of about 1 mg/kg, 3 mg/kg, 10 mg/kg, or 30 mg/kg; (2) the 5% mannitol vehicle alone at a dose volume of 10 mL/kg; or (3) a known antibiotic, such as ampicillin, at a similar dose as the lipopeptide compounds. At 18 to 24 hours post-antibiotic treatment, mice were sacrificed and lungs harvested. Lungs were sampled by spreading homogenates on blood agar plates and incubating for 24 h at 37° C., and then counting the number of CFU. The EKill (killing effect; i.e., log10 CFU/lung reduction as compared to CFU count at intial treatment time) and the EMax (maximum reduction effect; i.e., log10 CFU/lung reduction as compared to CFU count of control at 24 hours) for each compound was calculated.

Assay [3] concerns S. pneumoniae (SPN 0032, ATCC 10813). As to the kind of experiment: Intraperitoneal murine model of protection against infection (ED50, Table 21). Format: in vivo, Streptococcus pneumoniae. As to conditions: Swiss CD1 mice infected i.p., compound i.v.
Assay [4] relates to Staphylococcus aureus (SAU0017). As to the kind of experiment: Thigh infection model in neutropenic mice. Format: in vivo. As to conditions: neutropenic Swiss CD1 mice, i.m. S. aureus, i.v. treatment two hours post-infection, thigh CFU at 24 hours. On the procedure:
as §1

For assay [5], the system named is Staphylococcus aureus (MSSA). As to conditions: 24 h. In a few lines: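 Broth microdilution MIC per NCCLS M7-A6 with doubling serial dilutions, in cation-adjusted Mueller-Hinton broth supplemented with 0.625 mM calcium.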

For orientation: ED50 means the dose that gives a 50% effect, or the effect in half of the subjects. Take `CCCCCCCCCCCCCCC(=O)NC(CC(=O)O)C(=O)NC1C(=O)N2CCCCC2C(=O)NC(C(C)C(=O)O)C(=O)NC(CC(=O)O)C(=O)NCC(=O)NC(CC(=O)O)C(=O)NCC(=O)NC(C(C)NC(=O)CNC(=O)[C@@H](N)CCCCN)C(=O)NC(C(C)C)C(=O)N2CCCC2C(=O)NC1C` (stereo partly drawn) [Compound 4, C15-Amphomycin-9-Gly-Lys]: the ED50 in assay [1] stood at 1.3 mg/kg.

For `CCCCCCCCCCCCCCC(=O)NC(CC(=O)O)C(=O)NC1C(=O)N2CCCCC2C(=O)NC(C(C)C(=O)O)C(=O)NC(CC(=O)O)C(=O)NCC(=O)NC(CC(=O)O)C(=O)NCC(=O)NC(C(C)NC(=O)CCN)C(=O)NC(C(C)C)C(=O)N2CCCC2C(=O)NC1C` (stereo not drawn) [Compound 147, C15-Amphomycin-9-(β-Ala)], the “EKill (log10 CFU/lung reduction versus count at initial treatment time)” value in assay [2] (30 mg/kg i.v.) is 3.2 log10 CFU/lung. In addition, the “log10 CFU/lung reduction (EMax, versus control at 24 hours)” value in assay [2] (highest dose level 30 mg/kg i.v.) is listed as 4.0 log10 CFU/lung. The “ED50 in Mice, S. pneumoniae (SPN0032)” value in assay [3] was 0.65 mg/kg. Further, in assay [4], the median effective dose (ED50) lay within 1.1 to 1.8 mg/kg.

As a reminder, the MIC is the lowest concentration that inhibits growth of the organism. For the compound `CCCCCCCCCCCCCCC(=O)NC(CC(=O)O)C(=O)NC1C(=O)N2CCCCC2C(=O)NC(C(C)C(=O)O)C(=O)NC(CC(=O)O)C(=O)NCC(=O)NC(CC(=O)O)C(=O)NCC(=O)NC(C(C)NC(=O)CN(C)C(=O)[C@@H](N)CCCCN)C(=O)NC(C(C)C)C(=O)N2CCCC2C(=O)NC1C` (stereo partly drawn) [Compound 199, C15-Amphomycin-9-Sar-Lys], in assay [5], the minimal inhibitory concentration (MIC) lay in the range of 0.5 to 1 µg/mL.
